# According to article PMC11757143, “Generation and characterization of OX40-ligand fusion protein that agonizes OX40 on T-Lymphocytes” (Frontiers in Immunology, 2025):
# Legend:
# [1] = tested on: antigen-specific T cell responses of draining lymph node cells; experiment: Antigen recall responses of dLN cells from TNP-KLH/CFA-immunized mice (cytokine ELISA, MTT proliferation); format: in vivo, C57BL/6 mice; conditions: 20 µg i.p. on days 1 and 3, TNP-KLH/CFA day 0, dLN day 7, KLH recall 3 days
# From the text: The following reagents were used for the measurement of cytokines from T cells: anti-IL-2 (JES6-1A12, 503701, BioLegend, San Diego, CA, U.S.A.) capture antibody, biotin-anti-IL-2 (JES6-5H4, 503803, BioLegend) detection antibody, anti-IFN-γ (R4-6A2, 505702, BioLegend) capture antibody, biotin-anti-IFN-γ (XMG1.2, 505804, BioLegend) detection antibody, anti-IL-4 (11B11, 504101, BioLegend) capture antibody, biotin-anti-IL-4 (BVD6-24G2, 504201, BioLegend) detection antibody, anti-IL-17A (TC11-18H10.1, 506901, BioLegend) capture antibody, biotin-anti-IL-17A (TC11-8H4, 507001, BioLegend) detection antibody, HRP streptavidin (405210, BioLegend), and 3,3’,5,5’-tetramethylbenzidine (TMB, 421101, BioLegend). The absorbance was measured at 450 nm or 620 nm using a FilterMax F5 (Molecular Devices, San Jose, CA, U.S.A.).
# Groups of C57BL/6 mice from both male and female mice aged between 5 and 15 weeks were immunized subcutaneously at the footpad with 100 µg of 2,4,6-trinitrophenyl-conjugated keyhole limpet hemocyanin (TNP-KLH) emulsified in complete Freund’s adjuvant (CFA) (F5881, Merck) on day 0. Recombinant proteins in PBS were injected intraperitoneally on days 1 and 3. […] Cell viability on day 3 was assessed with a 3-(4,5-dimethylthiazol-2-yl)-2,5-diphenyl-tetrazolium (MTT) (M2128, Merck) assay.
# OX40-Fc = biological target: T1, OX40-Fc (Mus musculus, UniProt P47741); set-up: method as in PMID 36450532, PMID 37371066; conditions: previous studies; ref [23], [24]; cited from earlier work
# T1 construct: made in house
# T1 sequence (P47741 20-211 limits assumed): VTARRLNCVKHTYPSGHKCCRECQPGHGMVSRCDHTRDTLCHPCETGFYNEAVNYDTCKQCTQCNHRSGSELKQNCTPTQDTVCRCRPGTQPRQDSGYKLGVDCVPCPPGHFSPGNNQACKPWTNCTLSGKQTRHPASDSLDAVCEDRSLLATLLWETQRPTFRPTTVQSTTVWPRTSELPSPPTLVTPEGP
Substance,"antigen-specific T cell responses (recall IFN-γ, IL-17, IL-4 production and proliferation of dLN cells) [1]",specific interaction with OX40 (OX40-Fc)
"Fc-MBL-OX40L: Fusion protein: human IgG1 Fc (hinge, CH2, CH3), PA, MBL collagen-like domain, OX40L THD",failed to effectively stimulate in vivo T cell responses,–
"MBL-OX40L: Fusion protein: PA peptide tag, collagen-like domain of mannose-binding lectin, extracellular TNF homology domain of mouse OX40L",–,specifically interact with OX40
